Consider 14 molecules from US20120122822A1, “COMPOSITIONS FOR REDUCING BETA-AMYLOID-INDUCED NEUROTOXICITY COMPRISING BETA-SECRETASE INHIBITOR” (Phloronol, Inc., priority 2010, published 2012).

Read-outs that look alike come from different tables or passages of the source.

In one assay the target is T1, human recombinant BACE1 (Homo sapiens, UniProt P56817).
T1 construct: purchased PanVera, Wis., USA
As to the kind of experiment: β-secretase inhibition, human recombinant BACE1 assay kit (PanVera), fluorescence. It counts as biochemical. As to conditions: for inhibition at 0.01 µM: read-out: BACE Inhibition at 10 nM; for IC50: β-secretase (BACE). On the procedure: The primary 1,3,5-trihydroxybenzene polymer products obtained under the various conditions were assayed for inhibitory activity against β-secretase. For this purpose, a human recombinant BACE1 assay kit (PanVera, Wis., USA) was used according to the manufacturer's instructions.
For a negative control, an assay buffer containing none of the samples was used instead of the sample solution. In the absence of light, each reaction mixture was allowed to react at 25° C. for 60 min. Thereafter, while a light beam at 528 nm was applied to the reaction mixture, fluorescent light at 620 nm was detected with Bio-Tek Microplate fluorescence reader FLx 800 (VT, USA). Inhibition activity was calculated according to the following formula:
Inhibition (%)=[1−{(S−S0)/(C−C0)}]×100
C is a fluorescent intensity after reaction of the negative control for 60 min,
C0 is an initial fluorescent intensity of the negative control,
S is a fluorescent intensity after reaction of each sample for 60 min, and
S0 is an initial fluorescent intensity of each sample.

In a further assay the test system is N2a/APP cells. As to the kind of experiment: Reduction of neurotoxicity, MTT cell viability assay. In kind it is cell-based. The note with it: 10 μg/mL, 12 hrs. The protocol:
For this, N2a/APP cells were subjected to an MTT assay, which is a measure of mitochondrial activity that converts 3-(4,5-dimethyl-thiazol-2-yl)-2,5-diphenyl-tetrazolium bromide (MTT) to formazan in living cells. N2a/APP cells were seeded at a density of 1×10^4 cells/well into 96-well plates, incubated for 24 hrs, and left for 12 hrs in serum-free DMEM-Opti-MEM. Thereafter, the samples listed in Table 5 were added at a final concentration of 10 μg/mL to each well (medium free of any of the samples was used for a negative control) and then incubated for 12 hrs. To each well was added approx. 10 μL of MTT (5 mg/ml in phosphate buffered saline (PBS) solution), followed by incubation at 37° C. for 4 hrs. Each well was measured for absorbance at 570 nm. Inhibitory activity against neurotoxicity was assessed by an increase rate of cell viability as calculated by the following equation.
Increase Rate of Cell Viability (%)=(S−C)/C×100
(§1) where C is the absorbance of a negative control and S is the absorbance of each sample.
Background: Tetrazolium dyes change colour on reduction, which living cells bring about.

Assay [1] concerns beta amyloid (Aβ) production in N2a/APP cells. As to the kind of experiment: Inhibition of beta amyloid Aβ(1-42) production in nerve cells, immunoassay. It counts as cell-based. As to conditions: read-out: Aβ Inhibition Rate (%). On the procedure:
N2a/APP cells, used as a study model for neurodegenerative diseases (Wang X C, Zhang Y C, Chatterjie N, Grundke-Iqbal I, Iqbal K, Wang J Z. Neurochem Res (2008) 33:1138-1144), were employed to analyze the inhibition of beta amyloid (Aβ) production in nerve cells. N2a/APP cells were fixed onto 24-well plates (5×10^4 cells/well) containing a medium devoid of hygromycin B. The ingredients listed in Table 5 were added at a final concentration of 10 μg/mL to each well and incubated for 48 hrs. Secreted Aβ(1-42) was quantitatively analyzed with an Aβ(1-42) immunoassay kit (Biosource, Camarillo, Calif., USA). In this regard, the medium in each well was transferred into 96-well plates coated with an Aβ(1-42) antibody and then treated with a detection antibody. For this, after incubation at room temperature for 3 hrs, the medium was treated with HRP (horseradish peroxidase), an anti-rabbit antibody and stabilized chromogen to allow an antigen-antibody reaction. This reaction was terminated with a stop buffer before absorbance was read at 450 nm. For a negative control, no samples were added to the medium. Inhibitory effects on beta amyloid production were calculated according to the following equation and the results are summarized in Table 5, below.
Aβ Inhibition (%)=(C−S)/C×100
as §1

Where [2] appears, read: N2a/APP cells, 10 μg/mL, 48 hrs, secreted Aβ(1-42).

T1 sequence (P56817 46-501): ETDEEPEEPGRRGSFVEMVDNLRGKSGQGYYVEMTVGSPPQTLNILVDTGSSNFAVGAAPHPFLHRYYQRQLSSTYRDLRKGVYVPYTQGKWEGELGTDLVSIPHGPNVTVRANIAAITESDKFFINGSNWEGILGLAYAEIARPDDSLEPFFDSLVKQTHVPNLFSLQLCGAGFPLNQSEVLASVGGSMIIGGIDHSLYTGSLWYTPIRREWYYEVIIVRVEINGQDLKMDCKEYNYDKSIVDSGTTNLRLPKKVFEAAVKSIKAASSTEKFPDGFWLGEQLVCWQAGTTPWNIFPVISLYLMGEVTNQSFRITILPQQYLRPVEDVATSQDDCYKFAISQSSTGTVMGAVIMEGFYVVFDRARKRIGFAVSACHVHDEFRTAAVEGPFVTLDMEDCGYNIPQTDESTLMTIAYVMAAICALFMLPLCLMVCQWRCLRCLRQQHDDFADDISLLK

With `Oc1cc(O)cc(Oc2c(O)cc(O)c3c2oc2cc(O)c4c(c23)Oc2c(O)cc(O)cc2O4)c1` [Chemical Formula 3-2], at human recombinant BACE1, the inhibition at 0.01 µM was determined as 87% and the IC50 amounted to 1.7 nM.

`C[C@H](NC(=O)Cc1cc(F)cc(F)c1)C(=O)N[C@H]1N=C(c2ccccc2)c2ccccc2N(C)C1=O` [C. Ex. 3, (S)-2-[2-(3,5-Difluoro-phenyl)-acetylamino]-N-((S)-1-methyl-2-oxo-5-phenyl-2,3-dihydro-1H-benzo[e][1,4]diazepin-3-yl)-propionamide]: the “Increase Rate of Cell Viability (%)” value in the assay on N2a/APP cells is on record as −5%. In addition, in assay [1] (48 h), the inhibition at 10 µg/mL is 22%.

On to `Oc1cc(O)c2c(c1)Oc1c(O)cc3oc4cc(O)cc(O)c4c3c1O2` [Chemical Formula 3-1], for which, at human recombinant BACE1, the inhibition at 0.01 µM is 53% and the 50% inhibitory concentration (IC50) is 5.8 nM.

As to `Oc1cc(O)cc(Oc2c(O)cc(O)c3c2oc2cc4c(c(O)c23)Oc2cc(O)cc(O)c2O4)c1` [Chemical Formula 4-2], at human recombinant BACE1, the inhibition at 0.01 µM is 77% and the IC50 amounted to 3.6 nM.

In the case of `CC(C)Cc1ccc(C(C)C(=O)O)cc1` (centres unmarked) [C. Ex. 4, ibuprofen], in the assay on N2a/APP cells, the “Increase Rate of Cell Viability (%)” value was found to be 2%. For the same molecule, the inhibition at 10 µg/mL in assay [1] (setting [2]) was found to be 17%.

With `Oc1cc(O)cc(Oc2c(O)cc(O)c3c2Oc2c(cc4oc5cc(O)cc(O)c5c4c2O)O3)c1` [Chemical Formula 4-3], on human recombinant BACE1, the inhibition at 0.01 µM amounted to 70% and the IC50 was determined as 4 nM.

For the molecule `Cc1ccc(-c2cc(C(F)(F)F)nn2-c2ccc(S(N)(=O)=O)cc2)cc1` [C. Ex. 5, celecoxib], in the assay on N2a/APP cells, the “Increase Rate of Cell Viability (%)” value is listed as 15%. The inhibition at 10 µg/mL in assay [1] (setting [2]) amounted to 19%.

Turning to `Oc1cc(O)c2c(c1)Oc1c(cc3oc4cc(O)cc(O)c4c3c1O)O2` [Chemical Formula 4-1], at human recombinant BACE1, the inhibition at 0.01 µM worked out at 65% and the IC50 amounted to 4.7 nM.

As to `Oc1cc(O)cc(Oc2c(O)cc3c(c2O)Oc2c(c(O)cc4oc5c(Oc6cc(O)cc(O)c6)c(O)cc(O)c5c24)O3)c1` [Chemical Formula 3-6], at human recombinant BACE1, the inhibition at 0.01 µM came to 94% and the IC50 stood at 1.3 nM. Also, the “Increase Rate of Cell Viability (%)” value with N2a/APP cells amounted to 22%. Moreover, in assay [1] (setting [2]), the inhibition at 10 µg/mL came out at 30%.

For `Oc1cc(O)cc(Oc2c(O)cc(O)c3c2Oc2c(cc4oc5c(Oc6cc(O)cc(O)c6)c(O)cc(O)c5c4c2O)O3)c1` [Chemical Formula 4-4], at human recombinant BACE1, the inhibition at 0.01 µM came to 86% and the half-maximal inhibitory concentration (IC50) was 2.4 nM. Moreover, in the assay on N2a/APP cells, the “Increase Rate of Cell Viability (%)” value is on record as 21%. In assay [1] (setting [2]), the inhibition at 10 µg/mL worked out at 27%.

On to `C[C@H](NC(=O)Cc1cc(F)cc(F)c1)C(=O)N[C@@H]1C(=O)N(C)c2ccccc2-c2ccccc21` [C. Ex. 2, (S)-2-[2-(3,5-Difluoro-phenyl)-acetylamino]-N-((S)-5-methyl-6-oxo-6,7-dihydro-5H-dibenzo[b,d]azepin-7-yl)-propionamide], for which the “Increase Rate of Cell Viability (%)” value with N2a/APP cells is on record as 5%. The inhibition at 10 µg/mL in assay [1] (setting [2]) turned out to be 21%.

With `Oc1ccc(C=Cc2cc(O)cc(O)c2)cc1` [C. Ex. 7, resveratrol], the “Increase Rate of Cell Viability (%)” value in the assay with N2a/APP cells is listed as 10%. Also, the inhibition at 10 µg/mL in assay [1] (48 h) is 13%.

`Oc1cc(O)cc(Oc2c(O)cc(O)c3c2Oc2c(O)cc4oc5cc(O)cc(O)c5c4c2O3)c1` [Chemical Formula 3-4]: at human recombinant BACE1, the inhibition at 0.01 µM came out at 90% and the IC50 was found to be 1.5 nM.

Regarding `O=c1c(O)c(-c2ccc(O)c(O)c2)oc2cc(O)cc(O)c12` [C. Ex. 6, quercetin], in the assay on N2a/APP cells, the “Increase Rate of Cell Viability (%)” value came out at 12%. In addition, the inhibition at 10 µg/mL in assay [1] (48 h) came to 17%.

The inhibition is the drop in the measured response relative to a control, in per cent. By IC50 is commonly meant the midpoint of a concentration-inhibition curve.
